Patent US10028975B2, “Methods for treating ischemia-reperfusion injury” (Beth Israel Deaconess Medical Center, Inc., priority 2010, dated 2018)

How the values were obtained:
neutrophil infiltration = assay: Neutrophil infiltration (GR-1 staining) in intestine and lung; assay type: in vivo, mouse
Protocol: (§1) For immunofluorescence (IF) staining, formalin-fixed paraffin-embedded sections were blocked with 10% BSA-PBS at room temperature for 1 hour and incubated with FITC-labeled primary or secondary antibodies at room temperature for 1 hour. The slides were washed, and coverslips were mounted with Dako Fluorescent mounting medium and analyzed by confocal microscopy (Nikon Eclipse Ti, Nikon Instruments, Melville, N.Y.). FITC-labeled goat anti-mouse IgG (Santa Cruz, Calif., sc2010), FITC-labeled rat anti-mouse C3 (11H9) (Santa Cruz, Calif., sc-58926), FITC-labeled goat anti-mouse IgM (Southern Biotech, 1021-02), and FITC-labeled rat anti-mouse Ly-6G and LY-6C (Clone R6B-8C5) (BD Pharmingen) were the antibodies used in these studies.
Therefore, we evaluated the presence of neutrophils in the intestine and lung after sham and I/R procedures in mice treated with Syk inhibitor. Mice subjected to I/R had more prominent GR-1 staining within the intestinal tissue after 3-hour reperfusion when compared to the sham-operated mice group.

Syk [1] = target: T1, Syk (Mus musculus, UniProt P48025); assay: Syk staining in intestine and lung by immunohistochemistry; assay type: in vivo; conditions: pre-treatment with Syk inhibitor, IHC
T1 construct: formalin-fixed paraffin sections of intestine and lung were subjected to rehydration and antigen retrieval; from tissue; host or cells: intestine and lung of C57BL/6J mice
Protocol: (§2) In order to perform immunohistochemistry (IHC) staining, formalin-fixed paraffin sections of intestine and lung were subjected to rehydration and antigen retrieval using a standard protocol. For IHC studies, the following reagents were used: rabbit anti-mouse Syk (N-19) (Santa Cruz, Calif.), rabbit anti-mouse p-Syk (phospho Y323) (Abeam, Inc.), and rabbit anti-mouse C3 (B-9) (Santa Cruz, Calif.).
Syk expression in the intestine and lung were evaluated by IHC. Syk staining in intestines and lungs were more prominent in I/R groups than in sham-operated groups.

[2] = tested on: complement component 3 protein (C3) deposition; assay: C3 deposition in intestine and lung by IHC and IF; assay type: in vivo, mouse; conditions: I/R mice treated with Syk inhibitor
Text: as §2, §1
It has been reported that I/R activates the complement system, as indicated by C3 deposition on the intestine (Williams et al., supra). […]

[3] = tested on: C57BL/6J mice subjected to mesenteric I/R (lung); assay: Remote lung injury scoring (H&E) after mesenteric ischemia-reperfusion; assay type: in vivo, mouse; conditions: mean±SEM; for total lung injury score: I/R mice, 3 h reperfusion, scale 0-18
Text: (§3) Mice were randomly assigned to the following experimental groups: (a) mouse chow+sham procedures, (b) mouse chow+I/R procedures, (c) control chow+sham procedures, (d) control chow+I/R procedures, (e) R788 (3 g/kg)+sham procedures, (f) R788 (3 g/kg)+I/R procedures, and (g) R788 (5 g/kg)+I/R procedures […].
(§4) Syk inhibitor R788 was provided by Rigel Pharmaceuticals (South San Francisco, Calif.). Mice were fed food containing R788 (3 g/kg of chow, n=6 or 5 g/kg of chow, n=3), control chow (n=6), or regular chow (n=6). Food was prepared by Research Diets, Inc. (New Brunswick, N.J.). C57BL/6J mice were fed the R788-containing chow ad libitum for 6 days prior to experimentation in order to determine the effect of R788 on I/R injury.
Animals underwent I/R as had been described previously (Chiu et al., Arch Surg. 101: 478-483, 1970 and Fleming et al., J Immunol. 169: 2126-2133, 2002). Briefly, we performed a midline laparotomy before a 30-minute equilibration period. […] The laparotomy incisions were sutured with 4.0 SOFSILK™, the mice resuscitated with 1.0 mL pre-warmed sterile phosphate-buffered saline (PBS) subcutaneously, and monitored during the reperfusion period. […]
Alveolar and periluminal injury scores in each lung section were calculated based on Cooke's method (Cooke et al., Blood 8: 3230-3239, 1996). For each lung section, we examined 10-20 fields at high power field magnification (400×) and scored for alveolar infiltration on a 3-tiered scale. The calculation of alveolar scores was as follows: when no infiltrate was present, a score of 0 was given; when the infiltrate could be visualized easily only at 400×, a score of 1 was assigned; when infiltrates were readily visible, a score of 2 was assigned; and the score for consolidation was 3. Similarly, each section was scored for periluminal damage (airway or blood vessel) at 100×. […] Based on the overall involvement of the section, a severity score was calculated: the severity score for 0-25% involvement was 1; a severity score of 2 was assigned for 25-50% involvement; and the severity score for >50% involvement was 3. […]

IgM deposition = assay: IgM staining in intestine and lung by immunofluorescence; assay type: in vivo, mouse; conditions: I/R intestinal and lung samples, both tissues
Protocol: as §1
Reperfusion after ischemia induced alteration of the endothelial membrane and allows neoantigen expression. Circulating natural IgM antibodies bind to these antigens and may trigger complement-mediated injury (Williams et al., J Applied Physiol. 86: 938-942, 1999). Therefore, we performed IgM staining by IF, as described above. There was increased IgM staining in I/R intestinal and lung samples when compared to the sham tissues. […] Unlike the differences detected for natural IgM staining, we were only able to detect minimal IgG staining in all groups (data not shown).

[4] = tested on: C57BL/6J mice subjected to mesenteric I/R (intestine); assay: Intestinal mucosal injury scoring (H&E) after mesenteric ischemia-reperfusion; assay type: in vivo, mouse; conditions: mean±SEM; for intestinal injury score (mucosal injury score): I/R mice, 30 min ischemia, 3 h reperfusion, scale 0-6
Text: as §3, §4
Animals underwent I/R as had been described previously (Chiu et al., Arch Surg. 101: 478-483, 1970 and Fleming et al., J Immunol. 169: 2126-2133, 2002). Briefly, we performed a midline laparotomy before a 30-minute equilibration period. […] A small non-traumatic microvascular clip delivering approximately 85 grams of pressure was then applied for 30 minutes. The clip was removed after this ischemia phase, and the intestines were allowed to reperfuse for 3 hours. Sham-operated mice underwent the above-described surgical intervention without artery occlusion. The laparotomy incisions were sutured with 4.0 SOFSILK™, the mice resuscitated with 1.0 mL pre-warmed sterile phosphate-buffered saline (PBS) subcutaneously, and monitored during the reperfusion period. […]
For histological analysis, 20-cm segments of small intestine specimens were fixed in 10% buffered formalin phosphate immediately after euthanasia. […] To summarize, a normal villus was assigned a score of 0; villi with tip distortion were scored as 1; villi without goblet cells and with Guggenheims' spaces were scored as 2; villi with patchy disruption of the epithelial cells were scored as 3; villi with exposed but intact lamina propria and sloughing of epithelial cell were scored as 4; villi with exuding lamina propria were scored as 5; and villi with hemorrhage or denudation were scored as 6. […]

[5] = target: T2, phosphorylated Syk (p-Syk) (Mus musculus, UniProt P48025); assay: p-Syk staining in intestine and lung by IHC and IF; assay type: in vivo; conditions: I/R mice group, Syk inhibitor treatment, 3-hour reperfusion
T2 construct: formalin-fixed paraffin sections of intestine and lung were subjected to rehydration and antigen retrieval; from tissue; host or cells: intestine and lung of C57BL/6J mice
Text: as §2, §1
Because the Syk inhibitor suppresses the expression of phosphorylated Syk (p-Syk), the active form of Syk, we performed p-Syk staining by using IHC and IF. We observed staining in I/R group mice. […] After a 3-hour reperfusion, we detected only slight p-Syk staining.

Syk [6] = assay: Syk expression by Western blot in T cells transfected with Syk siRNA; assay type: cell-based; conditions: T cells electroporated with siRNA at 0.5, 0.7, 0.9, 1.5 and 2 μM per million, approximately 72 hours
Protocol: Different concentrations (0.5, 0.7, 0.9, 1.5, and 2 μM per million) of T cells were transfected by electroporation using Amexa Nucleofector solution. Briefly, a total of 5×10^6 T cells were re-suspended in 100 μl Nucleofector solution (Lonza Walkerrsville Inc.; Walkersville, Md.). The desired amount of Syk siRNA was mixed in with the T cell/nucleofector suspension and electrporated. The transfected cells were plated in RPMI-1640 medium without any antibiotic and incubated for approximately 72 hours. After proper incubation, transfected T cells were lysed in RIPA buffer, and Western blotting was performed with an antibody against total Syk (Clone 4D10; Santa Cruz Biotechnology, Inc.; Santa Cruz, Calif.).

[7] = sham-operated mice, Syk inhibitor (R788 3 g/kg chow)

T2 sequence (P48025 whole entry, the tested form may be a part): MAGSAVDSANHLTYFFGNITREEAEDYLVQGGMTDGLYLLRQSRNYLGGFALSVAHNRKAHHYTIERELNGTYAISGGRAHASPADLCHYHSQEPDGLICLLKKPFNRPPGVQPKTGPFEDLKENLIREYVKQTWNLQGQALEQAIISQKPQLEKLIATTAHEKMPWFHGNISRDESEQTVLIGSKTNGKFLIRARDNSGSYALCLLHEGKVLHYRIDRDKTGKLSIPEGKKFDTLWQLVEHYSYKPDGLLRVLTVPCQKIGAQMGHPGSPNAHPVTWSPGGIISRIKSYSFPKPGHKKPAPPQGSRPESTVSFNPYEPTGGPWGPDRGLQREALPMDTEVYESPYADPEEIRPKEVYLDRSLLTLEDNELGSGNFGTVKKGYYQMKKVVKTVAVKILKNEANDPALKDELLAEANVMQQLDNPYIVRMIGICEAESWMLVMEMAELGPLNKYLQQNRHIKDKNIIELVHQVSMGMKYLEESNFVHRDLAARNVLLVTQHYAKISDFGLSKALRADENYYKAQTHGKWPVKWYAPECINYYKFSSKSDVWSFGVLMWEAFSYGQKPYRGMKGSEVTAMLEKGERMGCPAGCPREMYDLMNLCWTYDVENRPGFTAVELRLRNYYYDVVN
T1 sequence (P48025 whole entry): as the sequence (P48025 whole entry, the tested form may be a part) above

## COc1cc(Nc2ncc(F)c(Nc3ccc4c(n3)N(COP(=O)(O)O)C(=O)C(C)(C)O4)n2)cc(OC)c1OC [R788]
Neutrophil infiltration; intestinal tissue, 3-hour reperfusion
  I/R-induced neutrophil infiltration (GR-1 staining): prevented I/R-induced neutrophil infiltration
Neutrophil infiltration; lung tissue, I/R mice
  neutrophil infiltration in the lung tissues: decreased infiltration
Syk [1]
  Syk staining in either the intestine or the lung: did not cause any changes
[2]; intestine
  C3 staining in the intestinal mucosa: attenuated C3 staining
[2]; lung
  C3 deposition in the lungs: limited C3 deposition
[3]; 3 g/kg R788 in chow for 6 days
  total lung injury score: 1.36±0.18
[3]; 5 g/kg R788 in chow for 6 days
  total lung injury score: 1.1±0.46
[3]; [7]
  average pulmonary damage score: 1.03±0.26
IgM deposition
  IgM deposition (immunofluorescence staining): reduced IgM deposition
[4]; 3 g/kg R788 in chow for 6 days
  intestinal injury score (mucosal injury score): 0.58±0.08
[4]; 5 g/kg R788 in chow for 6 days
  intestinal injury score (mucosal injury score): 0.92±0.14
[4]; [7]
  intestinal injury score: 0.42±+0.33
[5]
  p-Syk staining in the lung and intestine: eliminated p-Syk staining

## SEQ ID NOs: 1 and 2: Syk-specific siRNA pair: sense GGAUAAGAACAUCAUAGAAtt, antisense UUCUAUGAUGUUCUUAUCCtt (sense GGAUAAGAACAUCAUAGAATT; antisense UUCUAUGAUGUUCUUAUCCTT; chemistry not given here)
Syk [6]
  Syk expression (Western blot): can be inhibited

## SEQ ID NOs: 3 and 4: Syk-specific siRNA pair: sense CGCUCUUAAAGAUGAGUUAtt, antisense UAACUCAUCUUUAAGAGCGgg (sense CGCUCUUAAAGAUGAGUUATT; antisense UAACUCAUCUUUAAGAGCGGG; chemistry not given here)
Syk [6]
  Syk expression (Western blot): can be inhibited

## SEQ ID NOs: 5 and 6: Syk-specific siRNA pair: sense GCACUAUCGCAUCGACAAAtt, antisense UUUGUCGAUGCGAUAGUGCag (sense GCACUAUCGCAUCGACAAATT; antisense UUUGUCGAUGCGAUAGUGCAG; chemistry not given here)
Syk [6]
  Syk expression (Western blot): can be inhibited
